The values that follow come from ChEMBL document CHEMBL1129925, “Synthesis and antiviral evaluation of 4-hydroxymethyl-2, 3-dideoxy-3-thianucleosides and their cyclic monophosphates” (Bioorg Med Chem Lett, 1997).

For one experiment, the system named is CEM-SS. As to the kind of experiment: Tested for anti-HIV activity in CEM-SS cell line; Inactive. The experiment is classed as functional, cell-based. As to conditions: Homo sapiens.
Experiment [1] concerns MT4. As to the kind of experiment: Antiviral activity in MT-4 cells expressed as CC50. The experiment is classed as functional. Conditions: Homo sapiens.
Experiment [2] has as its system MT4. The experiment is described as follows: Antiviral activity in MT-4 cells expressed as IC50. In kind it is functional, cell-based, Homo sapiens.
In experiment [3] the test system is MT4. The experiment is described as follows: Cytotoxicity against MT-4 cells. In kind it is functional. Conditions: Homo sapiens.
In experiment [4] the test system is CCRF-CEM. The experiment is described as follows: Cytotoxicity against CEM cells. In kind it is functional. Conditions: Homo sapiens.
A short description of experiment [5]: Cytotoxicity against PBM cells. The experiment is classed as functional. Conditions: Homo sapiens, PBMC.
Experiment [6] can be described thus: Antiviral activity in PBM cells. In kind it is functional, cell-based. As to conditions: Homo sapiens, PBMC.
The test system of experiment [7] is MT4. As to the kind of experiment: Antiviral activity in MT-4 cells. Conditions: Homo sapiens. The experiment is classed as functional, cell-based.
Experiment [8] deals with CCRF-CEM. As to the kind of experiment: Antiviral activity in CEM cells expressed as CC50. The experiment is classed as functional. Conditions: Homo sapiens.
The nature of experiment [9]: Antiviral activity in PBM cells expressed as IC50. In kind it is functional, cell-based, Homo sapiens.
For the next experiment, the system named is H9. The experiment is described as follows: Antiviral activity in H9 cells expressed as IC50. In kind it is functional, cell-based. As to conditions: Homo sapiens.
Experiment [10] concerns CD-4+ (A 3.01). The experiment is described as follows: Antiviral activity in CD-4+ (A 3.01) cell line expressed as CC50. In kind it is functional.
For experiment [11], the system named is CD-4+ (A 3.01). The experiment is described as follows: Antiviral activity in CD-4+ (A 3.01) cell line expressed as IC50. The experiment is classed as functional, cell-based.
A short description of experiment [12]: Antiviral activity in PBM cells expressed as CC50. As to conditions: Homo sapiens, PBMC. The experiment is classed as functional.

The source made the active and inactive calls. No cut-off for these calls is given here. Some results are limits rather than exact numbers.

Consider `Nc1ccn(C2CSC(CO)(CO)O2)c(=O)n1` (centres undefined), for which, in the experiment on CEM-SS, the Anti-HIV activity entry was “inactive”.

With `Cc1cn(C2CSC3(COP(=O)(O)OC3)O2)c(=O)[nH]c1=O` (centres undefined), the Anti-HIV activity entry in the experiment with CEM-SS was “inactive”.

For orientation: CC50 means the concentration giving 50% cytotoxicity. Read a low CC50 as harm at low concentration. What is called IC50 is the point on the concentration scale where inhibition reaches its midpoint. A low value points to higher potency. The compound `Nc1ccn([C@@H]2CS[C@H](CO)O2)c(=O)n1` (racemic) [LAMIVUDINE] returned a CC50 with MT4 [1] of 405 µM. The compound also registered a half-inhibitory concentration (IC50) in the experiment on MT4 [2] (Homo sapiens, MT4) of 370 nM.

Take `Nc1ccn([C@@H]2CS[C@H](CO)O2)c(=O)n1` (single isomer, unassigned) [LAMIVUDINE]: the CC50 in the experiment with MT4 [3] was 407 µM; in the experiment on CCRF-CEM [4] it was 363 µM; in experiment [5], more than 100 µM. Further, the results for the half-inhibitory concentration (IC50) (in experiment [6]; in the experiment with MT4 [7]) were 210 nM and 370 nM, respectively. As to `Nc1ccn(C2CSC3(COP(=O)(O)OC3)O2)c(=O)n1` (centres undefined), the Anti-HIV activity entry in the experiment with CEM-SS was “inactive”. For `Nc1ccn([C@@H]2CS[C@H](CO)O2)c(=O)n1` (stereo in doubt; (-)) [LAMIVUDINE], the IC50 came out at 610 nM in the experiment on MT4 [2] (mt4) and 2 nM in [9]. In the experiment with CCRF-CEM [8], this compound showed a CC50 of 363 µM. For the compound `Cc1cn(C2CSC(CO)(CO)O2)c(=O)[nH]c1=O` (centres undefined), the Anti-HIV activity entry with CEM-SS was “inactive”. Compound `Nc1ccn(C2CC(CO)C(CO)O2)c(=O)n1` (centres undefined) displayed an IC50 in the experiment on H9 of 10 nM.

In the experiment on CD-4+ (A 3.01) [10], `Cc1cn([C@H]2C[C@H](O)[C@](CO)(N=[N+]=[N-])O2)c(=O)[nH]c1=O` yielded a cytotoxic concentration (CC50) of 8 µM. In the experiment on CD-4+ (A 3.01) [11], this compound displayed an IC50 of 10 nM. `Nc1ccn([C@@H]2CS[C@H](CO)O2)c(=O)n1` (stereo in doubt; (+)) [LAMIVUDINE] gave a CC50 in experiment [12] of more than 100 µM. The compound also had an IC50 in experiment [9] of 210 nM.
